Test results from patent US7381744B1, “Method of treating osteoporosis comprising vacuolar-type (H+)-ATPase-inhibiting compounds” (The United States of America as represented by the …, priority 1999, dated 2008).

Experiments:
NCI-H322M = assay: NCI 60 cell-line screen; format: cell-based; details: Homo sapiens, Lung, averaged, quadruplicate testing, read-out: negative log10 GI50 (converted)
Description: (§1) It is the concentration where 100×(T−To)/To=−50=PG. […] Res., 34, 91-109 (1995).

NCI-H460 = assay: NCI 60 cell-line screen; format: cell-based; details: Homo sapiens, Lung, averaged, quadruplicate testing, read-out: negative log10 GI50 (converted)
Description: as §1

NCI-H522 = assay: NCI 60 cell-line screen; format: cell-based; details: Homo sapiens, Lung, averaged, quadruplicate testing, read-out: negative log10 GI50 (converted)
Description: as §1

OVCAR-3 = assay: NCI 60 cell-line screen; format: cell-based; details: Homo sapiens, Ovary, averaged, quadruplicate testing, read-out: negative log10 GI50 (converted)
Description: as §1

OVCAR-4 = assay: NCI 60 cell-line screen; format: cell-based; details: Homo sapiens, Ovary, averaged, quadruplicate testing, read-out: negative log10 GI50 (converted)
Description: as §1

OVCAR-5 = assay: NCI 60 cell-line screen; format: cell-based; details: Homo sapiens, Ovary, averaged, quadruplicate testing, read-out: negative log10 GI50 (converted)
Description: as §1

OVCAR-8 = assay: NCI 60 cell-line screen; format: cell-based; details: Homo sapiens, Ovary, averaged, quadruplicate testing, read-out: negative log10 GI50 (converted)
Description: as §1

PC-3 = assay: NCI 60 cell-line screen; format: cell-based; details: Homo sapiens, Prostate, averaged, quadruplicate testing, read-out: negative log10 GI50 (converted)
Description: as §1

RPMI-8226 = assay: NCI 60 cell-line screen; format: cell-based; details: Homo sapiens, Leukemia, averaged, quadruplicate testing, read-out: negative log10 GI50 (converted)
Description: as §1

RXF-393 = assay: NCI 60 cell-line screen; format: cell-based; details: Homo sapiens, Kidney, averaged, quadruplicate testing, read-out: negative log10 GI50 (converted)
Description: as §1

SF-268 = assay: NCI 60 cell-line screen; format: cell-based; details: Homo sapiens, Brain, averaged, quadruplicate testing, read-out: negative log10 GI50 (converted)
Description: as §1

SF-295 = assay: NCI 60 cell-line screen; format: cell-based; details: Homo sapiens, Brain, averaged, quadruplicate testing, read-out: negative log10 GI50 (converted)
Description: as §1

SF-539 = assay: NCI 60 cell-line screen; format: cell-based; details: Homo sapiens, Brain, averaged, quadruplicate testing, read-out: negative log10 GI50 (converted)
Description: as §1

SK-MEL-28 = assay: NCI 60 cell-line screen; format: cell-based; details: Homo sapiens, Melanoma, averaged, quadruplicate testing, read-out: negative log10 GI50 (converted)
Description: as §1

SK-MEL-2 = assay: NCI 60 cell-line screen; format: cell-based; details: Homo sapiens, Melanoma, averaged, quadruplicate testing, read-out: negative log10 GI50 (converted)
Description: as §1

SK-MEL-5 = assay: NCI 60 cell-line screen; format: cell-based; details: Homo sapiens, Melanoma, averaged, quadruplicate testing, read-out: negative log10 GI50 (converted)
Description: as §1

SK-OV-3 = assay: NCI 60 cell-line screen; format: cell-based; details: Homo sapiens, Ovary, averaged, quadruplicate testing, read-out: negative log10 GI50 (converted)
Description: as §1

SN-12C = assay: NCI 60 cell-line screen; format: cell-based; details: Homo sapiens, SN12C, Kidney, averaged, quadruplicate testing, read-out: negative log10 GI50 (converted)
Description: as §1

SNB-19 = assay: NCI 60 cell-line screen; format: cell-based; details: Homo sapiens, Brain, averaged, quadruplicate testing, read-out: negative log10 GI50 (converted)
Description: as §1

SNB-75 = assay: NCI 60 cell-line screen; format: cell-based; details: Homo sapiens, Brain, averaged, quadruplicate testing, read-out: negative log10 GI50 (converted)
Description: as §1

SR = assay: NCI 60 cell-line screen; format: cell-based; details: Homo sapiens, Leukemia, averaged, quadruplicate testing, read-out: negative log10 GI50 (converted)
Description: as §1

SW-620 = assay: NCI 60 cell-line screen; format: cell-based; details: Homo sapiens, Colon, averaged, quadruplicate testing, read-out: negative log10 GI50 (converted)
Description: as §1

T-47D = assay: NCI 60 cell-line screen; format: cell-based; details: Homo sapiens, T47D, Breast, averaged, quadruplicate testing, read-out: negative log10 GI50 (converted)
Description: as §1

TK-10 = assay: NCI 60 cell-line screen; format: cell-based; details: Homo sapiens, Kidney, averaged, quadruplicate testing, read-out: negative log10 GI50 (converted)
Description: as §1

U251 = assay: NCI 60 cell-line screen; format: cell-based; details: Homo sapiens, U-251, Brain, averaged, quadruplicate testing, read-out: negative log10 GI50 (converted)
Description: as §1

UACC-257 = assay: NCI 60 cell-line screen; format: cell-based; details: Homo sapiens, Melanoma, averaged, quadruplicate testing, read-out: negative log10 GI50 (converted)
Description: as §1

UACC-62 = assay: NCI 60 cell-line screen; format: cell-based; details: Homo sapiens, Melanoma, averaged, quadruplicate testing, read-out: negative log10 GI50 (converted)
Description: as §1

UO-31 = assay: NCI 60 cell-line screen; format: cell-based; details: Homo sapiens, Kidney, averaged, quadruplicate testing, read-out: negative log10 GI50 (converted)
Description: as §1

[1] = system: vacuolar-type (H+)-ATPase derived from human kidney cells (hK); assay: vacuolar-type (H+)-ATPase inhibition assay, membrane vesicles (hK); format: biochemical; details: bafilomycin-sensitive activity; oligomycin 5 μg/ml and vanadate 1 mM present; 37°, 30 minutes
Description: (§2) Inhibition of bafilomycin-sensitive vacuolar-type (H+)-ATPase activity was measured in partially purified membrane vesicle preparations from human osteoclastoma cells (hOc), human renal cortical cells (hK), and macrophage cells (J774). The vesicles were prepared by appropriate adaptations of methods described in Gagliardi et al., J. Med. Chem., 41, 1568-1573 (1998); and Gagliardi et al., J. Med. Chem., 41, 1883-1893 (1998).
(§3) Vacuolar-type (H+)-ATPase assays were performed in the presence of oligomycin (5 μg/ml) and vanadate (1 mM) as inhibitors of F- and P-ATPases, respectively. A […] method was used to quantitate the residual bafilomycin-sensitive vacuolar-type (H+)-ATPase activity (see Chan et al., Anal. Biochem., 157, 375-380 (1986)). The assay measures the release of inorganic phosphate from ATP at 37° during 30 minutes of incubation. The reaction is initiated by the addition of MgSO4 ([…]).

[2] = system: vacuolar-type (H+)-ATPase derived from macrophage cells (J774); assay: vacuolar-type (H+)-ATPase inhibition assay, membrane vesicles (J774); format: biochemical; details: bafilomycin-sensitive activity; oligomycin 5 μg/ml and vanadate 1 mM present; 37°, 30 minutes
Description: as §2, §3

[3] = system: mammalian vacuolar-type (H+)-ATPase (from chromaffin granule membranes); assay: mammalian vacuolar-type (H+)-ATPase inhibition, side-by-side test; format: biochemical; details: chromaffin granule membranes; side-by-side test
Description: (§4) The inhibitory data were obtained using the same procedures and biological preparations described in Bowman et al., Proc. Natl. Acad. Sci. USA, 85, 7972-7976 (November 1988).

[4] = system: fungal vacuolar-type (H+)-ATPase (from Neurospora crassa); assay: fungal vacuolar-type (H+)-ATPase inhibition, side-by-side test; format: biochemical
Description: as §4

[5] = stability in solvents observed during isolation and NMR; format: physicochemical; details: deuterated chloroform
Description: Therefore, all subsequent attempts at isolation avoided the use of chloroform or exposure of samples to CDCl3, and no further problems with decomposition or loss of bioactivity were encountered. Moreover, there was no indication of any instability of the pure isolated compounds in any of the other common organic solvents employed, nor in aqueous or biological media.
Signals obscured by or unresolved in the first solvent were readily discernible in the second. Consequently, ^1H-^1H COSY, HMQC, and HMBC NMR data were gathered in both solvents. […] From a combination of the HMQC (Table 2) and the COSY spectral data, the partial structures illustrated in FIGS. 5A-5C were generated.

Compound: CC/C=C\C=C/C(=O)N/C=C/CC1CC(O)C(C)C/C=C/Cc2cccc(O)c2C(=O)O1 (stereo not drawn) [salicylihalamide A]
- GI50 (NCI-H322M): 191 nM
- GI50 (NCI-H460): 0.977 nM
- GI50 (NCI-H522): 55 nM
- GI50 (OVCAR-3): 93.3 nM
- GI50 (OVCAR-4): 5010 nM
- GI50 (OVCAR-5): 7.76 nM
- GI50 (OVCAR-8): 3.72 nM
- GI50 (PC-3): 30.9 nM
- GI50 (RPMI-8226): 12.9 nM
- GI50 (RXF-393): 0.851 nM
- GI50 (SF-268): 28.2 nM
- GI50 (SF-295): 1.1 nM
- GI50 (SF-539): 12.9 nM
- GI50 (SK-MEL-28): 100 nM
- GI50 (SK-MEL-2): 33.9 nM
- GI50 (SK-MEL-5): 1 nM
- GI50 (SK-OV-3): 2880 nM
- GI50 (SN-12C): 17 nM
- GI50 (SNB-19): 339 nM
- GI50 (SNB-75): 617 nM
- GI50 (SR): 3.63 nM
- GI50 (SW-620): 28.8 nM
- GI50 (T-47D): 4.57 nM
- GI50 (TK-10): 1820 nM
- GI50 (U251): 26.9 nM
- GI50 (UACC-257): 3.39 nM
- GI50 (UACC-62): 4.17 nM
- GI50 (UO-31): 4.9 nM
- IC50 [1]: 0.3 nM
- IC50 [2]: 2.8 nM
- inhibitory activity against mammalian vacuolar-type (H+)-ATPase [3]: potent inhibitor
- inhibitory activity against fungal vacuolar-type (H+)-ATPase [4]: little or no inhibitory activity
- stability in CDCl3 [5]: sensitivity of salicylihalamide A to CDCl3
